US10028992B2, “Methods of treating muscular dystrophy” (BOARD OF REGENTS OF THE NEVADA SYSTEM OF HIGHER EDUCATION …, priority 2012, dated 2018)
Where two headings read alike, the source gives them in different places.

System: α7 integrin promoter
Assay: muscle cell-based assay: α7βgal+/− myoblasts/myotubes, LacZ reporter, β-galactosidase cleavage of FDG
Set-up: species or system mouse; Results in α7+/− β-galactosidase assay: scale not given here
Conditions: for Results in a α7+/− β-galactosidase assay, Myotubes, 0.5 uM: compound at 0.5 uM; for Results in a α7+/− β-galactosidase assay, Myotubes, 1 uM: compound at 1 uM; for Results in a α7+/− β-galactosidase assay, Myotubes, 5 uM: compound at 5 uM; for Results in a α7+/− β-galactosidase assay, Myotubes, 10 uM: compound at 10 uM; for Results in a α7+/− β-galactosidase assay, Myotubes, 20 uM: compound at 20 uM; for Results in a α7+/− β-galactosidase assay, Myotubes, 40 uM: compound at 40 uM; for EC50 / AC50: Mus musculus; for EC50: read-out: Fit LogAC50 (converted); for AC50: log of AC50, given with negative sign, unit of AC50 not given, read-out: Fit Log AC50 (converted)
Summary of the method: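 Primary α7βgal+/− mouse myoblasts (LacZ knocked into α7 integrin exon 1, promoter retained), differentiated; promoter activity read as β-galactosidase conversion of non-fluorescent FDG to fluorescein. Hits followed by dose-response, western analysis and myostatin counterscreen.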

[1] = given as log AC50 (negative values)
[2] = curve class number, key not given
[3] = curve fit, activity at zero concentration
[4] = Table 12, fitted activity at zero concentration
[5] = Table 12 Compound data, concentration-response curve fit

Compound | Results in α7+/− β-galactosidase assay (Myoblasts, 0.5 uM) | Results in α7+/− β-galactosidase assay (Myoblasts, 1 uM) | Results in α7+/− β-galactosidase assay (Myoblasts, 5 uM) | Results in α7+/− β-galactosidase assay (Myoblasts, 10 uM) | Results in α7+/− β-galactosidase assay (Myoblasts, 20 uM) | Results in α7+/− β-galactosidase assay (Myoblasts, 40 uM) | Results in a α7+/− β-galactosidase assay, Myotubes, 0.5 uM (Myotubes) | Results in a α7+/− β-galactosidase assay, Myotubes, 1 uM (Myotubes) | Results in a α7+/− β-galactosidase assay, Myotubes, 5 uM (Myotubes) | Results in a α7+/− β-galactosidase assay, Myotubes, 10 uM (Myotubes) | Results in a α7+/− β-galactosidase assay, Myotubes, 20 uM (Myotubes) | Results in a α7+/− β-galactosidase assay, Myotubes, 40 uM (Myotubes) | further results
Cn1cc(CN(CCO)Cc2cccs2)c(-c2ccccc2F)n1 [drawing 523] | 0.1756 | 0.1912 | −0.02798 | 0.2648 | 0.0346 | −0.1208 | – | – | – | – | – | – | –
CCN1C(=O)/C(=C(/C#N)c2nc3ccccc3[nH]2)c2ccccc21 [drawing 524] | −0.1641 | −0.1562 | −0.1933 | −0.1296 | −0.2594 | −0.241 | – | – | – | – | – | – | –
O=C(O)C(Cc1ccc(O)cc1)N1C(=O)c2ccccc2C1=O (stereo not shown) [drawing 411] | – | – | – | – | – | – | 0.0905 | 0.1588 | 0.2927 | −0.09211 | 0.2266 | 0.06733 | –
O=C(CCc1ccccc1)c1nnc(-c2ccccc2)o1 [drawing 575] | 0.0917 | 0.1045 | 0.03485 | −0.04687 | −0.02713 | −0.06265 | – | – | – | – | – | – | –
COc1ccc2c(c1)C(=C(C#N)C#N)C(=O)N2CCc1ccccc1 [drawing 314] | – | – | – | – | – | – | 0.006429 | 0.1052 | 0.04228 | −0.09235 | −0.8051 | −0.734 | –
Cc1ccc2c(c1)/C(=C/c1ccccc1C)C(=O)N2 [drawing 558] | 0.05088 | −0.09662 | −0.07445 | 0.08015 | −0.3519 | −0.675 | – | – | – | – | – | – | –
COc1ccc(/N=N/c2ccc(N)nc2N)cc1 [drawing 576] | 0.2183 | 0.2858 | 0.06976 | 0.01151 | 0.0406 | −0.04372 | – | – | – | – | – | – | –
NC(=O)c1sc2nc3c(cc2c1N)CCC3 [drawing 400] | – | – | – | – | – | – | −0.1099 | −0.1307 | −0.1528 | 0.5381 | 0.07998 | 0.08496 | –
Cc1cc(C)c(/C=C2\C(=O)Nc3ccccc32)[nH]1 [drawing 510] | – | – | – | – | – | – | – | – | – | – | – | – | Results in α7+/− β-galactosidase assay (Myotubes, 0.5 uM): −0.2205; Results in α7+/− β-galactosidase assay (Myotubes, 1 uM): −0.08303; Results in α7+/− β-galactosidase assay (Myotubes, 5 uM): −0.5223; Results in α7+/− β-galactosidase assay (Myotubes, 10 uM): −0.3378; Results in α7+/− β-galactosidase assay (Myotubes, 20 uM): −0.232; Results in α7+/− β-galactosidase assay (Myotubes, 40 uM): −0.06918
Cc1cc(-c2ccccc2)n2nc(N)nc2n1 [Compound 127] | – | – | – | – | – | – | – | – | – | – | – | – | EC50 [1]: 12.6 µM; Score (Table 12 compound data): 43; Fit Curve Class [2]: 2.1; Fit HillSlope (curve fit): 4.5045; Fit Zero Activity [%] [3]: −18.9102%
O=C1Cc2ccccc2/C1=C\c1ccc([N+](=O)[O-])cc1 [drawing 703] | 0.04429 | −0.00937 | 0.02036 | 0.1452 | −0.2086 | −0.4972 | – | – | – | – | – | – | –
COc1ccc(Cl)cc1NC(=O)c1cc(-c2cc(C)ccc2O)[nH]n1 [drawing 373] | – | – | – | – | – | – | 0.00543 | 0.04041 | −0.08884 | −0.1274 | −0.1168 | −0.2232 | –
COc1ccc(CCNC(=O)c2cc(-c3cc(C)ccc3O)n[nH]2)cc1OC [Compound 217] | – | – | – | – | – | – | – | – | – | – | – | – | EC50 [1]: 10 µM; Score (Table 12 compound data): 42; Fit Curve Class [2]: 2.2; Fit HillSlope (curve fit): 3.0654; Fit Zero Activity [%] [3]: 9.7958%
Br.COc1ccc(C(=O)CN2CCCCC2)cc1 [Compound 181] | – | – | – | – | – | – | – | – | – | – | – | – | Fit Curve Class: 2.1; Fit HillSlope: 4.9549; Fit Zero Activity [%]: 12.5%; Score: 42; EC50: 12.6 µM
O=C(NCc1ccccc1)c1csc(-c2cccnc2)n1 [drawing 452] | – | – | – | – | – | – | −0.05273 | −0.1614 | 0.1395 | 0.1693 | 0.05975 | −0.1073 | –
O=C(NCCc1ccc(Cl)cc1)C1CCCO1 (stereo not shown) [drawing 689] | 0.03412 | 0.00045 | 0.2918 | 0.03423 | 0.08798 | 0.003802 | – | – | – | – | – | – | –
Cc1ccccc1NC(=O)c1ccc2c(O)c(Sc3ccccc3)c(=O)[nH]c2c1 [drawing 426] | – | – | – | – | – | – | −0.06746 | −0.07688 | −0.09733 | 0.01498 | −0.07909 | −0.1428 | –
COc1ccc2oc(C[S+]([O-])c3ccccc3)c(C(=O)O)c2c1 (stereo not shown) [Compound 109] | – | – | – | – | – | – | – | – | – | – | – | – | AC50 (Table 12): 12.6 µM; Fit HillSlope (Table 12, curve fit): 4.9549; Fit Zero Activity [%] [4]: 7.5839%; Fit Curve Class (Table 12, key not given): 2.1; Score [5]: 43
CCCC(=O)Nc1ccccc1NC(=O)c1ccc(OCC)cc1 [Compound 206] | – | – | – | – | – | – | – | – | – | – | – | – | EC50 [1]: 11.2 µM; Score (Table 12 compound data): 42; Fit Curve Class [2]: 2.1; Fit HillSlope (curve fit): 4.095; Fit Zero Activity [%] [3]: 13.9528%
O=C1c2ccccc2C(=O)C1(CC(O)O)c1ccccc1 [drawing 682] | 0.2496 | 0.3517 | −0.03545 | −0.1644 | −0.1709 | −0.2409 | – | – | – | – | – | – | –
Cc1ccc2c(c1)/C(=C/c1ccccc1C)C(=O)N2 [drawing 350] | – | – | – | – | – | – | −0.01581 | −0.0839 | −0.04071 | 0.0246 | −0.4093 | −0.6283 | –
CCc1c(C)sc(NC(=O)c2ccco2)c1C#N [drawing 320] | – | – | – | – | – | – | 0.1503 | 0.1892 | 0.6497 | −0.03138 | −0.1002 | −0.1982 | –
CC(C)c1ccc(NC(=O)CN2C(=O)c3ccccc3S2(=O)=O)cc1 [Compound 150] | – | – | – | – | – | – | – | – | – | – | – | – | EC50 [1]: 10 µM; Score (Table 12 compound data): 42; Fit Curve Class [2]: 2.2; Fit HillSlope (curve fit): 4.5045; Fit Zero Activity [%] [3]: −0.2112%
CC1CCN(C(CNS(=O)(=O)c2ccccc2)c2ccccc2)CC1 (stereo not shown) [drawing 612] | 0.05229 | −0.05932 | −0.02531 | −0.1141 | −0.291 | −0.3822 | – | – | – | – | – | – | –
Cc1nc2c([nH]1)OC(N)=C(C#N)C21CCN(Cc2ccccc2)CC1 [Compound 132] | – | – | – | – | – | – | – | – | – | – | – | – | Fit Curve Class: 2.1; Fit HillSlope: 4.9549; Fit Zero Activity [%]: 12.8108%; Score: 43; EC50: 12.6 µM
O=C1Cc2ccccc2/C1=C\c1ccc([N+](=O)[O-])cc1 [drawing 495] | – | – | – | – | – | – | −0.06418 | −0.0268 | −0.312 | 0.004591 | −0.246 | −0.2389 | –
O=C(Nc1ccccc1F)c1ccc([N+](=O)[O-])s1 [Compound 81] | – | – | – | – | – | – | – | – | – | – | – | – | AC50 (Table 12): 12.6 µM; Fit HillSlope (Table 12, curve fit): 4.5045; Fit Zero Activity [%] [4]: 3.1931%; Fit Curve Class (Table 12, key not given): 2.1; Score [5]: 44
CC(C)(C)Nc1nc(-c2ccc3c(c2)CCN3C(=O)C2CC2)cs1 [drawing 553] | 0.1228 | 0.2827 | 0.1111 | −0.01717 | −0.1366 | −0.2135 | – | – | – | – | – | – | –
